Legend:
[1] = test system: grape (Cabernet Sauvignon); test: Anthocyanin content of pericarp of grape bunches sprinkled with isoleucine; format: in vivo; settings: 10 mM isoleucine + 0.1% Applauch BI, 6.25 mL per bunch; Cabernet Sauvignon after start of veraison
Experimental: For the test, Cabernet Sauvignon plants that had been cultivated in a test cultivation field and had begun veraison were used. Eight bunches of fruit of the grape were collected from each of two root clumps, i.e., total 16 bunches of fruit were collected, and 6.25 mL per bunch of 0.1% Applauch BI (Kao, control), 1 g/L of abscisic acid (ABA)+0.1% Applauch BI (positive control), or 10 mM isoleucine+0.1% Applauch BI were sprinkled on them. The samples were collected 4 times, and they were collected from 4 bunches for each time. Anthocyanin contained in pericarp was extracted with a mixed solution of water and acetone (1:2) from pericarp, and anthocyanin content was measured in the same manner as described above.

[2] = test system: cherry tomato (Suncherry Pure); format: in vivo; settings: 10 mM sprinkled once a week
Experimental: Three seeds of cherry tomato (Suncherry Pure, Tokita Seed) were shown in compost contained in a slit pot, and cultivated in the same manner as described in Example 1, provided that the cultivation was performed in a greenhouse as in Example 2. The compost and application of fertilizer were the same or performed in the same manner as those described in Example 1. One month after the sowing, each seedling was permanently planted in a 9.0-cm long pot (top diameter 9 cm, height 20 cm, bottom diameter 6.4 cm), and cultivated until harvest. As for application of fertilizer, a 200-fold diluted solution of Vegetable Life A (Otsuka Chemical) was additionally applied as a fertilizer by irrigation in a volume of 100 mL per one root clump (pot) every two days from one month after the sowing to the harvest. After the plants of four root clumps uniformly grew, and flower buds began to appear, water (Con.), 10 mM L-isoleucine aqueous solution (Ile), or 10 mM proline aqueous solution (Pro) was sprinkled on the whole plants once a week. The sprinkled volume was adjusted in accordance with the growth of the plants, and it was 15 to 30 mL per one root clump. Then, ripening of fruit, number of fruit, amino acid content of fruit juice, sugar content and acidity of fruit juice, and antioxidant capacity of fruit juice were investigated for each root clump.

LOX and Psy genes = test: Gene expression in pepper (Anaheim) sprinkled with Ile; format: in vivo; settings: 10 mM Ile once a week, compared to Con.
Experimental: A 10 mM isoleucine aqueous solution (Ile) was sprinkled on pepper plants (variety, Anaheim), which also belong to the family Solanaceae, like tomato, and gene expression analysis was performed. The pepper plants were cultivated in a greenhouse in the same manner as described in Example 2. Ile was sprinkled once a week, and after the second sprinkling, leaves were collected from the pepper plants. RNA extraction, cDNA synthesis, and real-time PCR were performed in the same manner as described in Example 5 to analyze gene expression. Expression of the LOX gene was analyzed by using leaves collected 3 hours after the second sprinkling, and expression of the Psy gene was analyzed by using leaves collected 24 hours after the second sprinkling.

[3] = test system: cherry tomato (Suncherry Pure); test: Sugar content and acidity analysis of tomato fruit juice; format: in vivo; settings: 10 mM sprinkled once a week
Experimental: After the plants of four root clumps uniformly grew, and flower buds began to appear, water (Con.), 10 mM L-isoleucine aqueous solution (Ile), or 10 mM proline aqueous solution (Pro) was sprinkled on the whole plants once a week. The sprinkled volume was adjusted in accordance with the growth of the plants, and it was 15 to 30 mL per one root clump.
Mature tomato fruit were taken from cherry tomato plants of each experimental group in the same manner as described in iii) above, and fruit juice was pressed out from each fruit. Glucose content, fructose content, and acidity of each fruit juice extract were analyzed. Analysis of glucose and fructose was performed for a 20-fold diluted solution of fruit juice by using a food analysis reagent kit, F-Kit (Saccharose (Sucrose)/D-Glucose/D-Fructose Kit (Roche)) and DU800 Spectrophotometer (Beckman Coulter) according to the manuals of the kit and instrument. Acidity analysis was performed by using a pocket acidity meter (PAL-AC1, ATAGO).

[4] = test system: Apples (variety, Tsugaru); test: Anthocyanin content of pericarp of harvested apples immersed in Ile solutions; format: in vivo, apple; settings: immersed 15 minutes in Ile solutions (1, 5, 10 mM) + 0.1% Applauch BI; 10th and 15th days after the treatment; compared to control group
Experimental: Apples (variety, Tsugaru) ready to mature (before coloring) were harvested, washed with tap water and then with distilled water, and immersed into water (control) and isoleucine (Ile) aqueous solutions of various concentrations for 15 minutes. To each treatment solution, 0.1% Applauch BI (Kao) was added. The treatment groups consisted of the following groups.
After the treatment, the apples were air-dried, and left standing in an incubator. The conditions consisted of constant temperature of 20° C., lighting condition of 120 μM/m^2/s obtained with 9 of 40 W fluorescent lamps, and daylength conditions of 16 hours of light period and 8 hours of dark period per day.
Pericarp color of the apples was evaluated by measuring anthocyanin content. Pericarp (0.5 g) collected from an apple of each treatment group was immersed in 5 mL of 2% formic acid at 4° C. for 24 hours to extract anthocyanin. Anthocyanin contained in the extract was analyzed by liquid chromatography. Since most part of anthocyanin of apple consists of cyanidin galactosides, anthocyanin concentration was calculated as cyanidin galactoside concentration.

[5] = test system: tomato fruit (Suncherry Pure); test: Coloring and carotenoid content of harvested immature tomato fruit sprinkled with Ile; format: in vivo
Experimental: Then, the beakers were closed with plastic wrap, and left for 5 hours; then the wrap was removed, and the fruit were left as they were. The test was performed at room temperature, and the sprinkling of water and Ile solution was performed twice in total at an interval of one week. […] The tomato fruit of which seeds were removed were frozen with liquid nitrogen, and ground in a mortar. […] The extraction mixture was centrifuged for 5 minutes (8000 rpm), and the chloroform layer as the lower layer was transferred to a new tube. Chloroform (0.5 mL) was added again to the former tube, extraction was performed in the same manner, and the chloroform layer was fully taken out, and transferred to the latter tube containing the aforementioned chloroform extract. Then, chloroform was evaporated from the obtained extract by using a centrifugal evaporator. Then, a sample solution was prepared by adding 0.5 mL of chloroform to the residue to dissolve it, and carotenoids contained in the sample solution were analyzed. For the measurement of carotenoids, the extraction sample was diluted 100 times with chloroform, and absorbance thereof was measured at the extinction wavelength of carotenoids (480 nm) by using DU800 Spectrophotometer (Beckman Coulter).

Phelipanche aegyptiaca = settings: plants cultivated on an agar medium; cited from earlier work

SMILES: CC[C@H](C)[C@H](N)C(=O)O [Ile, L-isoleucine]
- anthocyanin content of pericarp [1]: increases
- final crop yield: number of fruit produced, larger as compared to water (Con.) [2]: 16%
- number of tomatoes that had changed color [2]: larger in the order of the tomato plants sprinkled with Ile, Pro, and water (Con.)
- Expression of the LOX gene (LOX and Psy genes; leaves 3 hours after the second sprinkling): higher
- Expression of the Psy gene (LOX and Psy genes; leaves 24 hours after the second sprinkling): higher
- glucose content and fructose content of the fruit, comparison of groups [3]: almost the same as those of the control
- Acidity ([3]; fruit juice of mature fruit): 0.46%
- Fructose ([3]; fruit juice of mature fruit): 13.3 g/L
- Glucose ([3]; fruit juice of mature fruit): 13.3 g/L
- anthocyanin content of apple pericarp [4]: higher
- color of harvested fruit around the 27th day ([5]; 10 mM Ile, 1 mL on six immature fruit, twice at an interval of one week, room temperature, water control still green): began to turn color
- color of harvested fruit around the 34th day ([5]; 10 mM Ile, sprinkled twice, water control still half-mature orange): turned color to a fully mature red
- carotenoid content of the tomato fruit ([5]; around the 27th day, absorbance at 480 nm, compared to fruit treated with water): higher
- infection of Phelipanche aegyptiaca in Arabidopsis thaliana (Phelipanche aegyptiaca): ineffective

From patent US10226044B2, “Agricultural and horticultural composition and method for cultivating plant” (AJINOMOTO CO., INC., priority 2014, dated 2019)
